The values below come from publication PMC4170656 (Developmental cell, 2014).

Type in all cases: binding
Assay [1] has as its target T1, His:ARD (ankyrin repeat domain of AKR2A) (Arabidopsis thaliana, UniProt Q9SAR5, L315A).
T1 sequence (Q9SAR5 211-342 L315A): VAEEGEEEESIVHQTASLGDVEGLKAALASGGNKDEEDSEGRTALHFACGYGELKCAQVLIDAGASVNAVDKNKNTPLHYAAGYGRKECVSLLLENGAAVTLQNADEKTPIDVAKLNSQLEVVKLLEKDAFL
Description: SPR sensorgrams, lipid vesicles on L1 chip. The note with it: POPG/POPC (50:50) vesicles; pH 7.4, 0.16 M NaCl, 23°C; L3 site.

Assay [2] concerns the target T2, His:ARD (ankyrin repeat domain of AKR2A) (Arabidopsis thaliana, UniProt Q9SAR5, E246A).
T2 sequence (Q9SAR5 211-342 E246A): T1 sequence (Q9SAR5 211-342 L315A) with E36A, A105L
Description: SPR sensorgrams, lipid vesicles on L1 chip. The note with it: POPG/POPC (50:50) vesicles; pH 7.4, 0.16 M NaCl, 23°C; L1 site.

Assay [3] has as its target T3, His:ARD (ankyrin repeat domain of AKR2A) (Arabidopsis thaliana, UniProt Q9SAR5, H223A).
T3 sequence (Q9SAR5 211-342 H223A): T1 sequence (Q9SAR5 211-342 L315A) with H13A, A105L
Description: SPR sensorgrams, lipid vesicles on L1 chip. As to conditions: POPG/POPC (50:50) vesicles; pH 7.4, 0.16 M NaCl, 23°C; L1 site.

The target in assay [4] is T4, His:AKR2A (full-length AKR2A) (Arabidopsis thaliana, UniProt Q9SAR5).
T4 sequence (Q9SAR5 1-342): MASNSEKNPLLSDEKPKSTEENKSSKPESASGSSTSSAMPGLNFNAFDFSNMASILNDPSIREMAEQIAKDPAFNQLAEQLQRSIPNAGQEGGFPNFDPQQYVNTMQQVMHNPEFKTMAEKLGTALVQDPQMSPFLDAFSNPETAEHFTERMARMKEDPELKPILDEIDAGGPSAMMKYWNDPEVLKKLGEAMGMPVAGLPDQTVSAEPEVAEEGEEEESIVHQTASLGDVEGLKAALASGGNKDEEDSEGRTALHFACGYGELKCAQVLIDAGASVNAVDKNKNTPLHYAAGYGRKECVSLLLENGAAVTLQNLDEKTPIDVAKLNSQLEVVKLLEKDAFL
Description: SPR, lipid vesicles on L1 chip. The note with it: POPG/POPC/MGDG [50:(50−x):x] vesicles; pH 7.4, 0.16 M NaCl, 23°C.

Assay [5] deals with T5, His:ARD (ankyrin repeat domain of AKR2A) (Arabidopsis thaliana, UniProt Q9SAR5, R296A).
T5 sequence (Q9SAR5 211-342 R296A): T1 sequence (Q9SAR5 211-342 L315A) with R86A, A105L
Briefly: SPR sensorgrams, lipid vesicles on L1 chip. The note with it: POPG/POPC (50:50) vesicles; pH 7.4, 0.16 M NaCl, 23°C; L2 site.

The target of assay [6] is T6, His:ARD (ankyrin repeat domain of AKR2A) (Arabidopsis thaliana, UniProt Q9SAR5, Y294A).
T6 sequence (Q9SAR5 211-342 Y294A): T1 sequence (Q9SAR5 211-342 L315A) with Y84A, A105L
Description: SPR sensorgrams, lipid vesicles on L1 chip. The note with it: POPG/POPC (50:50) vesicles; pH 7.4, 0.16 M NaCl, 23°C; L2 site.

For assay [7], the target named is T7, His:ARD (ankyrin repeat domain of AKR2A) (Arabidopsis thaliana, UniProt Q9SAR5, N314A).
T7 sequence (Q9SAR5 211-342 N314A): T1 sequence (Q9SAR5 211-342 L315A) with N104A, A105L
Description: SPR sensorgrams, lipid vesicles on L1 chip. The note with it: POPG/POPC (50:50) vesicles; pH 7.4, 0.16 M NaCl, 23°C; L3 site.

Residue numbers refer to the chain shown, from its start.

In the case of `CCCCCCCC/C=C\CCCCCCCC(=O)O[C@H](COC(=O)CCCCCCCCCCCCCCC)COP(=O)(O)OCC(O)CO` (stereo partly shown) [POPG], the “SPR sensorgrams, lipid vesicles on L1 chip” value in assay [1] is “the L3 site mutants (N314A and L315A) showed only modestly reduced binding”; in assay [2], “The L1 site mutants H223A and E246A also had a significantly lower binding affinity”; in assay [3], “The L1 site mutants H223A and E246A also had a significantly lower binding affinity”; in assay [5], “the L2 site mutants (Y294A and R296A) showed significantly lower binding than WT”; in assay [6] it was “the L2 site mutants (Y294A and R296A) showed significantly lower binding than WT”; in assay [7], “the L3 site mutants (N314A and L315A) showed only modestly reduced binding”. Moreover, the “SPR, lipid vesicles on L1 chip” value in assay [4] was “MGDG-dependent vesicle binding of full-length (FL) AKR2A (red) and ARD (blue)”.
